Tests used:
Conditions in all cases: main component drawn
S. pneumoniae D39V [1] = test: fitness (endpoint OD595 vs no drug) (fraction); higher = more growth
Outline: (§1)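 With the first reading as background, OD595 was measured every 30 min for 14 h in 384-well plates kept at 37 °C and inoculated at OD595 0.01. TSB, LB Lennox or CY was the medium. Fitness is the optical density at the transition into stationary phase divided by the robust mean of no-drug control wells, with a cap of 1.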

B. subtilis 168 [2] = test: as above
Outline: as §1

S. pneumoniae D39V [3] = test: Bliss interaction score (quartile over a dose matrix) (fitness difference); higher = more antagonism (negative = synergy)
Outline: (§2)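 The Bliss score is observed minus expected fitness, where expected fitness is the product of the single-drug fitness values inferred from the combination data. Fitness is the OD595 at the onset of stationary phase over the plate's robust no-drug mean, capped at 1. Scores are summarised by quartiles over technical, biological and donor/recipient replicates.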

B. subtilis 168 [4] = test: as above
Outline: as §2

S. aureus DSM 20231 = test: as above
Outline: as §2

S. aureus Newman = test: as above
Outline: as §2
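Throughout, for Bliss interaction score (quartile over a dose matrix): first quartile when negative (synergy) and third quartile when positive (antagonism).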
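Throughout, for fitness (endpoint OD595 vs no drug): OD595 on entry to stationary phase over no-drug wells; at most 1.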

O=C(O)c1cn(C2CC2)c2cc(N3CCNCC3)c(F)cc2c1=O [Ciprofloxacin] + CCC(C)C1C(=O)NC(=C)C(=O)NC(C(=O)NC(CSCC(C(=O)N1)NC(=O)/C(=C/C)/NC(=O)C(C(C)CC)N)C(=O)NC2C(SCC(NC(=O)CNC(=O)C3CCCN3C2=O)C(=O)NC(CCCCN)C(=O)NC4C(SCC(NC(=O)CNC(=O)C(NC(=O)C(NC(=O)C(NC(=O)CNC4=O)C)CC(C)C)CCSC)C(=O)NC(CC(=O)N)C(=O)NC(CCSC)C(=O)NC(CCCCN)C(=O)NC5C(SCC6C(=O)NC(C(=O)NC(CSC(C(C(=O)N6)NC(=O)C(NC5=O)C)C)C(=O)NC(CO)C(=O)NC(C(C)CC)C(=O)NC(CC7=CN=CN7)C(=O)NC(C(C)C)C(=O)NC(=C)C(=O)NC(CCCCN)C(=O)O)CC8=CN=CN8)C)C)C)CC(C)C [Nisin]
Conditions | fitness
B. subtilis 168 [2], first compound 0.0098 µg/mL, partner 0.5 µg/mL | 0.838
B. subtilis 168 [2], first compound 0.0098 µg/mL, partner 1 µg/mL | 0.814
B. subtilis 168 [2], first compound 0.0098 µg/mL, partner 2 µg/mL | 0.568
B. subtilis 168 [2], first compound 0.0195 µg/mL, partner 0.5 µg/mL | 0.702
B. subtilis 168 [2], first compound 0.0195 µg/mL, partner 1 µg/mL | 0.591
B. subtilis 168 [2], first compound 0.0195 µg/mL, partner 2 µg/mL | 0.427
B. subtilis 168 [2], first compound 0.039 µg/mL, partner 0.5 µg/mL | 0.276
B. subtilis 168 [2], first compound 0.039 µg/mL, partner 1 µg/mL | 0.129
B. subtilis 168 [2], first compound 0.039 µg/mL, partner 2 µg/mL | 0.031
S. pneumoniae D39V [1], first compound 0.125 µg/mL, partner 0.4275 µg/mL | 0.954
S. pneumoniae D39V [1], first compound 0.125 µg/mL, partner 0.855 µg/mL | 0.825
S. pneumoniae D39V [1], first compound 0.125 µg/mL, partner 1.6 µg/mL | 0.0088
S. pneumoniae D39V [1], first compound 0.125 µg/mL, partner 1.71 µg/mL | 0.0552
S. pneumoniae D39V [1], first compound 0.125 µg/mL, partner 3.2 µg/mL | 0.0108
S. pneumoniae D39V [1], first compound 0.125 µg/mL, partner 6.4 µg/mL | 0.005
S. pneumoniae D39V [1], first compound 0.25 µg/mL, partner 0.4275 µg/mL | 0.883
S. pneumoniae D39V [1], first compound 0.25 µg/mL, partner 0.855 µg/mL | 0.398
S. pneumoniae D39V [1], first compound 0.25 µg/mL, partner 1.71 µg/mL | 0.0414
S. pneumoniae D39V [1], first compound 0.5 µg/mL, partner 0.4275 µg/mL | 0.614
S. pneumoniae D39V [1], first compound 0.5 µg/mL, partner 0.855 µg/mL | 0.173
S. pneumoniae D39V [1], first compound 0.5 µg/mL, partner 1.6 µg/mL | 0.0116
S. pneumoniae D39V [1], first compound 0.5 µg/mL, partner 1.71 µg/mL | 0.0558
S. pneumoniae D39V [1], first compound 0.5 µg/mL, partner 3.2 µg/mL | 0.043

fitness, one replicate
Conditions | partner 1.25 µg/mL | partner 1.6 µg/mL | partner 2.5 µg/mL | partner 3.2 µg/mL | partner 4 µg/mL | partner 5 µg/mL | partner 6.4 µg/mL | partner 8 µg/mL | partner 16 µg/mL
B. subtilis 168 [2], first compound 0.0098 µg/mL | 0.919 | 0.726 | 0.577 | 0.0245 | 0.368 | 0.0657 | 0.0606 | 0.0414 | 0.0186
B. subtilis 168 [2], first compound 0.0195 µg/mL | 0.795 | 0.575 | 0.381 | 0.0411 | 0.223 | 0.035 | 0.0488 | 0.0139 | 0.0115
B. subtilis 168 [2], first compound 0.039 µg/mL | 0.256 | 0.0309 | 0.0565 | 0.0347 | 0.0357 | 0.061 | 0.0335 | 0.0446 | 0.0305
S. pneumoniae D39V [1], first compound 0.25 µg/mL | – | 0 | – | 0 | – | – | 0 | – | –

Conditions | Bliss interaction score
B. subtilis 168 [4] | -0.0496
S. aureus DSM 20231 | -0.123
S. aureus Newman | -0.059
S. pneumoniae D39V [3] | -0.0601
